From article PMC8623273, “Novel N7-Arylmethyl Substituted Dinucleotide mRNA 5′ cap Analogs: Synthesis and Evaluation as Modulators of Translation” (Pharmaceutics, 2021)
Read-outs that look alike come from different tables or passages of the source.

Legend:
eIF4E = eIF4E (Mus musculus, UniProt P63073); test: fluorescence anisotropy (FA) competition assay with eIF4E; type: binding; conditions: Table S2; for EC50: 25 °C, probe m^7GTP-triazol-FAM 10 nM, eIF4E 100 nM; for Kd: calculated from EC50
From the text: The KD values determined from the high-throughput assay were in qualitative agreement with data from time-synchronized fluorescence quenching titration, justifying the use of the former for evaluation of the whole set of caps. […] To additionally verify the binding affinity data (especially for 1q and 1r, as mentioned above), we determined the binding affinities for all analogs using another independent assay, based on fluorescence anisotropy. The KD data determined by this method correlated very well with the results reported above (Table S2, Figure S2).
Fractions of the compounds were independently tested using a different method based on fluorescence anisotropy (FA). These experiments were performed on a Synergy™ H1 plate reader in 96-well, black, non-binding assay plates. Each well contained appropriate buffer (50 mM HEPES/KOH pH 7.2, 100 mM KCl, 0.5 mM EDTA i 1 mM DTT), the fluorescent probe m^7GTP-triazol-FAM (10 nM), substrate (in a 2.08-fold dilution, starting from 60 μM) and protein eIF4E (100 nM). The m^7GTP-triazol-FAM was synthesized as describer earlier. All measurements were performed at 25 °C. Determined EC50 values were means ± SD of three independent experiments. The dissociation constants KD were then calculated using the equation described by Nikolovska-Coleska as described earlier.

hDcpS = target: T1, hDcpS (Homo sapiens, UniProt Q96C86); type: in vitro ADME; conditions: 100 μM compound, 20 nM hDcpS; for hDcpS Assay: fraction of the cap remaining after 1 h incubation with DcpS: 37 °C
T1 sequence (Q96C86 1-337): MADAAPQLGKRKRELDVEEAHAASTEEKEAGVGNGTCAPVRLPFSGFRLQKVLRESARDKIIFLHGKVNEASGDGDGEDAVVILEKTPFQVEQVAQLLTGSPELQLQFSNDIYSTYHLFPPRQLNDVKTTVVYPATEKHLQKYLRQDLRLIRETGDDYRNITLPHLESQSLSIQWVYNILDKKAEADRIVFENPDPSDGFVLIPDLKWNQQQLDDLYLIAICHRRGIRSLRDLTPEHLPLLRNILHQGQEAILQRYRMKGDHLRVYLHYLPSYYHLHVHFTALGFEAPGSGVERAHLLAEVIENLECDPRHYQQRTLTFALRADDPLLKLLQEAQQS
Description: Susceptibility to decapping scavenger (DcpS) is one of the factors that could potentially influence the cellular stability of mono- and dinucleotide cap analogs designed as translational inhibitors. Therefore, we studied the susceptibility of arylmethyl-modified dinucleotides to DcpS. The compounds (at 100 μM concentration each) were incubated with 20 nM of hDcpS, and the hydrolysis progress at different time points was analyzed via RP HPLC and compared to m^7GpppG (Figure 4 and Figure S3).
The enzymatic activity of DcpS was assayed at 37 °C in 50 mM Tris∙HCl, pH 7.6 containing 200 mM KCl, 0.5 mM EDTA. DcpS cleavage assays were carried out with 100 μM of the tested compound and 20 nM (monomer) of the hDcpS. Enzymatic reaction progress was examined after 30, 60 and 180 min. As a control, a sample was examined before adding enzyme. Aliquots of 15 μL were terminated by heat inactivation of the enzyme for 3 min at 98 °C. The samples were analyzed via RP HPLC equipped with a Supelcosil LC-18-T column (4.6 × 250 mm, 5 μm, flow rate 1.3 mL/min).

[1] = tested on: cap-dependent translation in rabbit reticulocyte lysate (RRL); test: inhibition of cap-dependent translation in rabbit reticulocyte lysate (RRL); type: biochemical
Description: After determining the affinity for eIF4E and susceptibility to DcpS, we evaluated the analogs as inhibitors of protein translation in rabbit reticulocyte lysates (RRL). To enable better assessment of how these two factors influenced inhibitory properties, we performed two sets of experiments. In the first set, cap analogs were added to RRL along with luciferase-encoding reporter mRNA followed by a protein activity (luminescence) readout after 1 h, whereas in the second set cap analogs were additionally preincubated in RRL for 1 h prior to addition of mRNA. Based on previously reported findings, we expected that in the second experimental setup, cap analogs susceptible to DcpS would lose their inhibitory potency, whereas compounds resistant to DcpS would remain similarly active.
The ability of the N7-benzyl cap analogues to inhibit cap-dependent translation was assayed in a rabbit reticulocyte lysate (RRL) system. Two sets of experiments were performed. In both variants, in vitro translation reactions (10 μL total volume) contained a tested cap analog (inhibitor) and an in vitro transcribed, ARCA-capped mRNA encoding Gaussia luciferase at 1 μg/mL final concentration. In experimental variant A, cap analogues at concentrations in the range of 0 to 64 μM and mRNA were added to the reaction mixture at the same time. Reactions were incubated at 30 °C for 60 min and then stopped by freezing in liquid nitrogen. In experimental variant B, the cap analogues were added at concentrations in the range of 0 to 160 μM. Reactions were pre-incubated at 30 °C for 60 min prior to addition of mRNA; after addition of mRNA incubation was continuous at 30 °C for 60 min and then stopped by freezing in liquid nitrogen. To detect luminescence from Gaussia luciferase, 50 μL of 10 ng/mL h-coelenterazine (NanoLight, Norman, OK, USA) in PBS was added to 10 μL of RRL and the luminescence was measured with a Synergy H1 (BioTek, Winooski, VT, USA) microplate reader.

[2] = RRL, cap analog and mRNA added at the same time (no pre-incubation), 60 min, 30 °C, read-out: Translation Inhibition IC50
[3] = cap analog incubated in RRL for 1 h prior to adding mRNA, read-out: Translation Inhibition IC50 (value in brackets) (converted)

Sequence of eIF4E (P63073 whole entry): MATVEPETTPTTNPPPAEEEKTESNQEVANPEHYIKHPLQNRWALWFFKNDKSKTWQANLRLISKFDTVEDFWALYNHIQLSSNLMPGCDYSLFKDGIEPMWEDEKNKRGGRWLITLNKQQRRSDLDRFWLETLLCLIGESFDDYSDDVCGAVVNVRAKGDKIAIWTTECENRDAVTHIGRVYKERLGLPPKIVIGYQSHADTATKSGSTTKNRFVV

Compound | EC50 (eIF4E) | Kd (eIF4E) | conversion after 1 h of incubation with hDcpS (hDcpS) | hDcpS Assay: fraction of the cap remaining after 1 h incubation with DcpS (hDcpS) | IC50 [1, 2] | IC50 [1, 3] | susceptibility to hDcpS (in words) (hDcpS)
Nc1nc(O)c2c(n1)n([C@@H]1O[C@H](COP(=O)(O)OP(=O)([O-])OP(=O)(O)OC[C@H]3O[C@@H](n4cnc5c(=O)[nH]c(N)nc54)[C@H](O)[C@@H]3O)[C@@H](O)[C@H]1O)c[n+]2Cc1ccccc1 [1a, Bn^7GpppG] | 270 ± 20 nM | 74 ± 23 nM | approximately 50% | 0.51 | 7400 ± 1400 nM | 9600 nM | –
Cc1cccc(C[n+]2cn([C@@H]3O[C@H](COP(=O)(O)OP(=O)([O-])OP(=O)(O)OC[C@H]4O[C@@H](n5cnc6c(=O)[nH]c(N)nc65)[C@H](O)[C@@H]4O)[C@@H](O)[C@H]3O)c3nc(N)nc(O)c32)c1 [1c, 3-MeBn^7GpppG] | 670 ± 20 nM | 222 ± 8 nM | – | 0.84 | 6600 ± 800 nM | 8200 nM | very slowly hydrolyzed
CC(C)c1ccc(C[n+]2cn([C@@H]3O[C@H](COP(=O)(O)OP(=O)([O-])OP(=O)(O)OC[C@H]4O[C@@H](n5cnc6c(=O)[nH]c(N)nc65)[C@H](O)[C@@H]4O)[C@@H](O)[C@H]3O)c3nc(N)nc(O)c32)cc1 [1e, 4-iPrBn^7GpppG] | 1300 ± 90 nM | 444 ± 33 nM | – | 0.94 | 15200 ± 3100 nM | – | Lower susceptibility to hydrolysis
Nc1nc(O)c2c(n1)n([C@@H]1O[C@H](COP(=O)(O)OP(=O)([O-])OP(=O)(O)OC[C@H]3O[C@@H](n4cnc5c(=O)[nH]c(N)nc54)[C@H](O)[C@@H]3O)[C@@H](O)[C@H]1O)c[n+]2Cc1ccc(F)cc1 [1g, 4-F-Bn^7GpppG] | 240 ± 80 nM | 64 ± 31 nM | ~70% | 0.76 | 6000 ± 900 nM | 21400 nM | –
Nc1nc(O)c2c(n1)n([C@@H]1O[C@H](COP(=O)(O)OP(=O)([O-])OP(=O)(O)OC[C@H]3O[C@@H](n4cnc5c(=O)[nH]c(N)nc54)[C@H](O)[C@@H]3O)[C@@H](O)[C@H]1O)c[n+]2Cc1ccc(Cl)cc1 [1h, 4-Cl-Bn^7GpppG] | 340 ± 140 nM | 102 ± 53 nM | ~70% | 0.67 | 18700 ± 3000 nM | 18700 ± 3600 nM | –
Nc1nc(O)c2c(n1)n([C@@H]1O[C@H](COP(=O)(O)OP(=O)([O-])OP(=O)(O)OC[C@H]3O[C@@H](n4cnc5c(=O)[nH]c(N)nc54)[C@H](O)[C@@H]3O)[C@@H](O)[C@H]1O)c[n+]2Cc1ccc(Br)cc1 [1i, 4-Br-Bn^7GpppG] | 210 ± 10 nM | 52 ± 3 nM | ~70% | 0.60 | 6400 ± 1000 nM | 22200 nM | –
Nc1nc(O)c2c(n1)n([C@@H]1O[C@H](COP(=O)(O)OP(=O)([O-])OP(=O)(O)OC[C@H]3O[C@@H](n4cnc5c(=O)[nH]c(N)nc54)[C@H](O)[C@@H]3O)[C@@H](O)[C@H]1O)c[n+]2Cc1ccc(F)c(F)c1 [1k, 3,4-di-F-Bn^7GpppG] | 880 ± 80 nM | 301 ± 30 nM | ~70% | 0.70 | 8200 ± 1100 nM | 21400 nM | –
Nc1nc(O)c2c(n1)n([C@@H]1O[C@H](COP(=O)(O)OP(=O)([O-])OP(=O)(O)OC[C@H]3O[C@@H](n4cnc5c(=O)[nH]c(N)nc54)[C@H](O)[C@@H]3O)[C@@H](O)[C@H]1O)c[n+]2Cc1ccc(C(F)(F)F)cc1 [1l, 4-CF3-Bn^7GpppG] | 590 ± 40 nM | 194 ± 17 nM | – | 0.87 | 9700 ± 2000 nM | 40000 nM | Lower susceptibility to hydrolysis
Nc1nc(O)c2c(n1)n([C@@H]1O[C@H](COP(=O)(O)OP(=O)([O-])OP(=O)(O)OC[C@H]3O[C@@H](n4cnc5c(=O)[nH]c(N)nc54)[C@H](O)[C@@H]3O)[C@@H](O)[C@H]1O)c[n+]2Cc1ccc([N+](=O)[O-])cc1 [1n, 4-NO2-Bn^7GpppG] | 520 ± 120 nM | 168 ± 43 nM | ~70% | 0.75 | 28200 ± 7500 nM | – | –
CO[C@@H]1[C@H](O)[C@@H](COP(=O)(O)OP(=O)([O-])OP(=O)(O)OC[C@H]2O[C@@H](n3cnc4c(=O)[nH]c(N)nc43)[C@H](O)[C@@H]2O)O[C@H]1n1c[n+](Cc2ccccc2)c2c(O)nc(N)nc21 [1q, Bn^7GmpppG] | 180 ± 30 nM | 40 ± 11 nM | – | 0.97 | 3700 ± 500 nM | 8200 nM | resistant to hDcpS
CO[C@@H]1[C@H](O)[C@@H](COP(=O)(O)OP(=O)([O-])OP(=O)(O)OC[C@H]2O[C@@H](n3cnc4c(=O)[nH]c(N)nc43)[C@H](O)[C@@H]2O)O[C@H]1n1c[n+](Cc2ccc(Cl)cc2)c2c(O)nc(N)nc21 [1r, 4-Cl-Bn^7GmpppG] | 190 ± 20 nM | 45 ± 7 nM | – | 0.99 | 6000 ± 900 nM | – | resistant to hDcpS
Cn1c[n+]([C@@H]2O[C@H](COP(=O)(O)OP(=O)([O-])OP(=O)(O)OC[C@H]3O[C@@H](n4cnc5c(=O)[nH]c(N)nc54)[C@H](O)[C@@H]3O)[C@@H](O)[C@H]2O)c2nc(N)[nH]c(=O)c21 [m^7GpppG, reference compound] | 410 ± 10 nM | 127 ± 5 nM | approximately 50% | 0.49 | 11400 ± 2400 nM | 30100 nM | –
